Experimental data: patent US20230339981A1, “KRAS G12D MODULATING COMPOUNDS” (priority 2022, published 2023)

Legend:
GDP-loaded KRAS G12D = GDP-loaded KRAS G12D (Homo sapiens (Human), UniProt P01116, G12D); assay: KRAS G12D (GDP) biochemical assay (TR-FRET probe displacement); type: binding; conditions: 2 hours
In short: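 TR-FRET probe displacement: 1:3 DMSO serial dilutions pre-incubated 30 min with GDP-bound KRAS G12D, followed by Eu-streptavidin/probe for 2 h at room temperature (Hepes pH 7.4, NaCl, MgCl2, Tween-20 buffer). IC50 defined as concentration halving TR-FRET ratio, from sigmoidal dose-response fit.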

GP2D (KRAS G12D) cells = assay: 2D cell viability assay (CellTiter-Glo); type: cell-based; conditions: GP2d, 96 h, 4 days
In short: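 Viability was read by CellTiter-Glo after 4 days at 37 °C of 2D culture of KRAS G12D GP2D cells (1000/well, RPMI, 10% FBS) on pre-spotted threefold compound dilutions. EC50 was fitted with a sigmoidal dose-response model as the point of half-maximal luminescence loss.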

Chain of GDP-loaded KRAS G12D (P01116-2 other isoform, or with tags, fused parts or gaps G12D): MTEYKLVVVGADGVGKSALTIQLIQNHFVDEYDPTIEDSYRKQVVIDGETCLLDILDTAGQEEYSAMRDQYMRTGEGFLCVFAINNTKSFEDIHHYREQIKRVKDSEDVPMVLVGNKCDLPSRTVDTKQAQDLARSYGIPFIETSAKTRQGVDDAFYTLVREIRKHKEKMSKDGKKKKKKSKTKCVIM

Structure (SMILES): C#Cc1c(F)ccc2cccc(-c3nc4c5c(nc(OCC6(CN7CC[C@H](OC(F)(F)F)C7)CC6)nc5c3F)N3C[C@H]5CC[C@H](N5)[C@@H]3[C@@H](C)C4)c12 [Example 89, (5S,5aS,6S,9R)-2-(8-ethynyl-7-fluoronaphthalen-1-yl)-1-fluoro-5-methyl-12-((1-(((S)-3-(trifluoromethoxy)pyrrolidin-1-yl)methyl)cyclopropyl)methoxy)-4,5,5a,6,7,8,9,10-octahydro-3,10a,11,13,14-pentaaza-6,9-methanonaphtho[1,8-ab]heptalene]
- IC50 (GDP-loaded KRAS G12D): 50.9 nM
- EC50 (GP2D (KRAS G12D) cells): 379 nM

Structure (SMILES): C#Cc1c(F)ccc2cc(O)cc(-c3nc4c5c(nc(OCC6(CN7CC[C@H](OC(F)(F)F)C7)CC6)nc5c3F)N3C[C@H]5CC[C@H](N5)[C@H]3CCC4)c12 [Example 162]
- IC50 (GDP-loaded KRAS G12D): 0.4 nM
- EC50 (GP2D (KRAS G12D) cells): 0.5 nM

Structure (SMILES): Oc1cc(-c2nc3c4c(nc(OC[C@@]56CCCN5C[C@H](F)C6)nc4c2F)N2C[C@H]4CC[C@H](N4)[C@H]2CO3)c2c(F)c(F)c(F)c(F)c2c1 [Example 12, 5,6,7,8-tetrafluoro-4-((5aS,6S,9R)-1-fluoro-12-(((2R,7aS)-2-fluorotetrahydro-1H-pyrrolizin-7a(5H)-yl)methoxy)-5a,6,7,8,9,10-hexahydro-5H-4-oxa-3,10a,11,13,14-pentaaza-6,9-methanonaphtho[1,8-ab]heptalen-2-yl)naphthalen-2-ol]
- IC50 (GDP-loaded KRAS G12D): 6 nM
- EC50 (GP2D (KRAS G12D) cells): 130 nM

Structure (SMILES): C#Cc1c(F)ccc2cccc(-c3nc4c5c(nc(OCC6(CN7CCC8(CC7)CC8)CC6)nc5c3F)N3C[C@H]5CC[C@H](N5)[C@H]3CCC4)c12 [Example 178, (6aR,7S,10R)-13-((1-((6-azaspiro[2.5]octan-6-yl)methyl)cyclopropyl)methoxy)-2-(8-ethynyl-7-fluoronaphthalen-1-yl)-1-fluoro-5,6,6a,7,8,9,10,11-octahydro-4H-3,11a,12,14,15-pentaaza-7,10-methanocyclohepta[4,5]cycloocta[1,2,3-de]naphthalene]
- IC50 (GDP-loaded KRAS G12D): 0.7 nM
- EC50 (GP2D (KRAS G12D) cells): 37.4 nM

Structure (SMILES): C#Cc1c(F)ccc2cccc(-c3nc4c5c(nc(OCC6(CN7CCC(OC(F)(F)F)CC7)CC6)nc5c3F)N3C[C@H]5CC[C@H](N5)[C@H]3CCC4)c12 [Example 127, (6aR,7S,10R)-2-(8-ethynyl-7-fluoronaphthalen-1-yl)-1-fluoro-13-((1-((4-(trifluoromethoxy)piperidin-1-yl)methyl)cyclopropyl)methoxy)-5,6,6a,7,8,9,10,11-octahydro-4H-3,11a,12,14,15-pentaaza-7,10-methanocyclohepta[4,5]cycloocta[1,2,3-de]naphthalene]
- IC50 (GDP-loaded KRAS G12D): 1.6 nM
- EC50 (GP2D (KRAS G12D) cells): 88.9 nM

Structure (SMILES): Oc1cc(-c2nc3c4c(nc(OC[C@@]56CCCN5C[C@H](F)C6)nc4c2F)N2CC4CCC(N4)[C@@H]2CO3)c2ccccc2c1 (stereo in doubt) [Example 21, 4-((5aR,6S,9R)-1-fluoro-12-(((2R,7aS)-2-fluorotetrahydro-1H-pyrrolizin-7a(5H)-yl)methoxy)-5a,6,7,8,9,10-hexahydro-5H-4-oxa-3,10a,11,13,14-pentaaza-6,9-methanonaphtho[1,8-ab]heptalen-2-yl)naphthalen-2-ol]
- IC50 (GDP-loaded KRAS G12D): 2100 nM
- EC50 (GP2D (KRAS G12D) cells): 3100 nM

Structure (SMILES): C#Cc1c(F)ccc2cccc(-c3nc4c5c(nc(OC[C@@]67CCCN6C[C@H](F)C7)nc5c3F)N3C[C@H]5CC[C@H](N5)[C@H]3[C@H](C)C4)c12 [Example 184, (5R,5aR,6S,9R)-2-(8-ethynyl-7-fluoronaphthalen-1-yl)-1-fluoro-12-(((2R,7aS)-2-fluorotetrahydro-1H-pyrrolizin-7a(5H)-yl)methoxy)-5-methyl-4,5,5a,6,7,8,9,10-octahydro-3,10a,11,13,14-pentaaza-6,9-methanonaphtho[1,8-ab]heptalene]
- IC50 (GDP-loaded KRAS G12D): 0.7 nM
- EC50 (GP2D (KRAS G12D) cells): 19 nM

Structure (SMILES): Fc1cccc2c(-c3nc4c5c(nc(OC[C@@]67CCCN6C[C@H](F)C7)nc5c3F)N3C[C@H]5CC[C@H](N5)[C@H]3CO4)cccc12 [Example 31, (5aS,6S,9R)-1-fluoro-2-(5-fluoronaphthalen-1-yl)-12-(((2R,7aS)-2-fluorotetrahydro-1H-pyrrolizin-7a(5H)-yl)methoxy)-5a,6,7,8,9,10-hexahydro-5H-4-oxa-3,10a,11,13,14-pentaaza-6,9-methanonaphtho[1,8-ab]heptalene]
- IC50 (GDP-loaded KRAS G12D): 4900 nM
- EC50 (GP2D (KRAS G12D) cells): > 1000 nM

Structure (SMILES): C#Cc1c(F)ccc2cccc(-c3nc4c5c(nc(OC[C@@]67CCCN6[C@H](COc6cnc(C(F)(F)F)cn6)CC7)nc5c3F)N3C[C@H]5CC[C@H](N5)[C@H]3CCC4)c12 [Example 197, (6aR,7S,10R)-2-(8-ethynyl-7-fluoronaphthalen-1-yl)-1-fluoro-13-(((3S,7aS)-3-(((5-(trifluoromethyl)pyrazin-2-yl)oxy)methyl)tetrahydro-1H-pyrrolizin-7a(5H)-yl)methoxy)-5,6,6a,7,8,9,10,11-octahydro-4H-3,11a,12,14,15-pentaaza-7,10-methanocyclohepta[4,5]cycloocta[1,2,3-de]naphthalene]
- IC50 (GDP-loaded KRAS G12D): 0.04 nM
- EC50 (GP2D (KRAS G12D) cells): 2.4 nM

Structure (SMILES): Oc1cc(-c2nc3c4c(nc(OC[C@@]56CCCN5C[C@H](F)C6)nc4c2F)N2C[C@H]4CC[C@H](N4)[C@H]2CO3)c2c(CC3CC3)c(F)ccc2c1 [Example 14, 5-(cyclopropylmethyl)-6-fluoro-4-((5aS,6S,9R)-1-fluoro-12-(((2R,7aS)-2-fluorotetrahydro-1H-pyrrolizin-7a(5H)-yl)methoxy)-5a,6,7,8,9,10-hexahydro-5H-4-oxa-3,10a,11,13,14-pentaaza-6,9-methanonaphtho[1,8-ab]heptalen-2-yl)naphthalen-2-ol]
- IC50 (GDP-loaded KRAS G12D): 34 nM
- EC50 (GP2D (KRAS G12D) cells): 530 nM

Structure (SMILES): C#Cc1c(F)ccc2cccc(-c3nc4c5c(nc(OC[C@@]67CCCN6[C@H](COC(C6CC6)C(F)(F)F)CC7)nc5c3F)N3C[C@H]5CC[C@H](N5)[C@H]3CCC4)c12 (stereo partly drawn) [Example 117, (6aR,7S,10R)-13-(((3S,7aS)-3-((1-cyclopropyl-2,2,2-trifluoroethoxy)methyl)tetrahydro-1H-pyrrolizin-7a(5H)-yl)methoxy)-2-(8-ethynyl-7-fluoronaphthalen-1-yl)-1-fluoro-5,6,6a,7,8,9,10,11-octahydro-4H-3,11a,12,14,15-pentaaza-7,10-methanocyclohepta[4,5]cycloocta[1,2,3-de]naphthalene]
- IC50 (GDP-loaded KRAS G12D): 0.1 nM
- EC50 (GP2D (KRAS G12D) cells): 8.5 nM

Structure (SMILES): C#Cc1c(F)ccc2cccc(-c3nc4c5c(nc(OC[C@@]67CCCN6C[C@H](F)C7)nc5c3F)N3C[C@H]5CC[C@H](N5)[C@H]3C[C@H]4CC)c12 [Example 182, (4R,5aR,6S,9R)-4-ethyl-2-(8-ethynyl-7-fluoronaphthalen-1-yl)-1-fluoro-12-(((2R,7aS)-2-fluorotetrahydro-1H-pyrrolizin-7a(5H)-yl)methoxy)-4,5,5a,6,7,8,9,10-octahydro-3,10a,11,13,14-pentaaza-6,9-methanonaphtho[1,8-ab]heptalene]
- IC50 (GDP-loaded KRAS G12D): 0.4 nM
- EC50 (GP2D (KRAS G12D) cells): 87 nM

Structure (SMILES): C#Cc1c(F)ccc2cc(O)cc(-c3nc4c5c(nc(OC[C@@]67CCCN6[C@H](CN=[N+]=[N-])CC7)nc5c3F)N3C[C@H]5CC[C@H](N5)[C@H]3CO4)c12 [Example 36, 4-((5aS,6S,9R)-12-(((3S,7aS)-3-(azidomethyl)tetrahydro-1H-pyrrolizin-7a(5H)-yl)methoxy)-1-fluoro-5a,6,7,8,9,10-hexahydro-5H-4-oxa-3,10a,11,13,14-pentaaza-6,9-methanonaphtho[1,8-ab]heptalen-2-yl)-5-ethynyl-6-fluoronaphthalen-2-ol]
- IC50 (GDP-loaded KRAS G12D): 0.2 nM
- EC50 (GP2D (KRAS G12D) cells): 4 nM

Structure (SMILES): C#Cc1c(F)ccc2cccc(-c3nc4c5c(nc(OC[C@@]67CCCN6[C@H](COCC(F)(F)F)CC7)nc5c3F)N3C[C@H]5CC[C@H](N5)[C@H]3CC4)c12 [Example 164, (5aR,6S,9R)-2-(8-ethynyl-7-fluoronaphthalen-1-yl)-1-fluoro-12-(((3S,7aS)-3-((2,2,2-trifluoroethoxy)methyl)tetrahydro-1H-pyrrolizin-7a(5H)-yl)methoxy)-4,5,5a,6,7,8,9,10-octahydro-3,10a,11,13,14-pentaaza-6,9-methanonaphtho[1,8-ab]heptalene]
- IC50 (GDP-loaded KRAS G12D): 0.3 nM
- EC50 (GP2D (KRAS G12D) cells): 38 nM

Structure (SMILES): C#Cc1c(F)ccc2cccc(-c3nc4c5c(nc(OC[C@@]67CCCN6C[C@H](F)C7)nc5c3F)N3C[C@H]5CC[C@H](N5)[C@H]3C[C@H]4O)c12 [Example 186, (4R,5aR,6S,9R)-2-(8-ethynyl-7-fluoronaphthalen-1-yl)-1-fluoro-12-(((2R,7aS)-2-fluorotetrahydro-1H-pyrrolizin-7a(5H)-yl)methoxy)-4,5,5a,6,7,8,9,10-octahydro-3,10a,11,13,14-pentaaza-6,9-methanonaphtho[1,8-ab]heptalen-4-ol]
- IC50 (GDP-loaded KRAS G12D): 0.2 nM
- EC50 (GP2D (KRAS G12D) cells): 13 nM

Structure (SMILES): C#Cc1c(F)ccc2cc(O)cc(-c3nc4c5c(nc(OC[C@@]67CCCN6[C@H](COC(C(F)(F)F)(C(F)(F)F)C(F)(F)F)CC7)nc5c3F)N3C[C@H]5CC[C@H](N5)[C@H]3CC4)c12 [Example 63, 5-ethynyl-6-fluoro-4-((5aR,6S,9R)-1-fluoro-12-(((3S,7aS)-3-(((1,1,1,3,3,3-hexafluoro-2-(trifluoromethyl)propan-2-yl)oxy)methyl)tetrahydro-1H-pyrrolizin-7a(5H)-yl)methoxy)-4,5,5a,6,7,8,9,10-octahydro-3,10a,11,13,14-pentaaza-6,9-methanonaphtho[1,8-ab]heptalen-2-yl)naphthalen-2-ol]
- IC50 (GDP-loaded KRAS G12D): 0.2 nM
- EC50 (GP2D (KRAS G12D) cells): 0.2 nM

Structure (SMILES): C#Cc1c(F)ccc2cc(O)cc(-c3nc4c5c(nc(OCC6(CN7CCC[C@H](F)C7)CC6)nc5c3F)N3C[C@H]5CC[C@H](N5)[C@H]3CO4)c12 [Example 33, 5-ethynyl-6-fluoro-4-((5aS,6S,9R)-1-fluoro-12-((1-(((S)-3-fluoropiperidin-1-yl)methyl)cyclopropyl)methoxy)-5a,6,7,8,9,10-hexahydro-5H-4-oxa-3,10a,11,13,14-pentaaza-6,9-methanonaphtho[1,8-ab]heptalen-2-yl)naphthalen-2-ol]
- IC50 (GDP-loaded KRAS G12D): 0.3 nM
- EC50 (GP2D (KRAS G12D) cells): 3 nM
